From PubChem BioAssay (NCI)
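Test compounds were applied to cells in 96-well plates for 48 hours at 5 doses. GI50: concentration for 50% inhibition of growth. TGI denotes the concentration required for complete inhibition of growth.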

Experiments:
Test in all cases: NCI-60 cell line screen, 48 h
U251 CNS = test system: U251 CNS
SK-MEL-2 melanoma = test system: SK-MEL-2 melanoma
OVCAR-4 ovarian = test system: OVCAR-4 ovarian
OVCAR-3 ovarian = test system: OVCAR-3 ovarian
786-0 renal = test system: 786-0 renal
OVCAR-5 ovarian = test system: OVCAR-5 ovarian
NCI-H522 lung = test system: NCI-H522 lung
HCT-15 colon = test system: HCT-15 colon
MALME-3M melanoma = test system: MALME-3M melanoma
SF-295 CNS = test system: SF-295 CNS

SMILES	GI50 (U251 CNS) [µM]	TGI (U251 CNS) [µM]	GI50 (SK-MEL-2 melanoma) [µM]	TGI (SK-MEL-2 melanoma) [µM]	GI50 (OVCAR-4 ovarian) [µM]	TGI (OVCAR-4 ovarian) [µM]	GI50 (OVCAR-3 ovarian) [µM]	TGI (OVCAR-3 ovarian) [µM]	GI50 (786-0 renal) [µM]	TGI (786-0 renal) [µM]	GI50 (OVCAR-5 ovarian) [µM]	TGI (OVCAR-5 ovarian) [µM]	GI50 (NCI-H522 lung) [µM]	TGI (NCI-H522 lung) [µM]	GI50 (HCT-15 colon) [µM]	TGI (HCT-15 colon) [µM]	GI50 (MALME-3M melanoma) [µM]	TGI (MALME-3M melanoma) [µM]	GI50 (SF-295 CNS) [µM]	TGI (SF-295 CNS) [µM]
O=S(=O)(NCCNc1cc(-c2cn(-c3ccccc3)nc2-c2cccc(O)c2)ccn1)c1ccc(C(F)(F)F)cc1	2.65	7.28	2.36	7.22	2.85	16.9	2.2	5.58	1.72	4.45	2.53	13.7	1.67	3.8	2.34	11	1.68	4.57	–	–
C#C[C@@]1(O)[C@@H](CO)O[C@@H](n2cc(Cl)c3c(N)ncnc32)[C@@H]1O	–	–	0.146	0.481	0.323	3.34	0.233	1.79	0.322	1.33	0.425	> 84.2	0.134	0.455	0.143	> 100	0.241	3.18	0.202	3.2
CCC[CH2][Sn]1([CH2]CCC)[O]C(c2ccccn2)S(=O)(=O)[O]1 (centres undefined)	2.96	11.8	1.7	3.22	6.86	20.1	3.06	11.6	2.12	4.11	–	–	1.18	2.47	1.79	3.5	1.63	3.27	2.94	8.26
CCN1C(C)=NC2C(=O)c3ccccc3C(=O)C21 (centres undefined)	–	> 100	–	> 100	–	62.7	–	> 100	–	> 100	–	–	–	–	–	> 100	–	> 100	–	> 100
COc1cc2c(c(OC)c1OC)-c1ccc([O-])c(=O)cc1[C@@H](NC(C)=O)CC2.COc1cc2c(c(OC)c1OC)-c1ccc([O-])c(=O)cc1[C@@H](NC(C)=O)CC2.[Cu+2]	3.48	> 100	3.59	> 100	4.91	> 100	2.16	5.19	7.9	> 100	14.8	> 100	–	–	3.73	> 100	15	> 100	3.1	> 100
CCN1C(=O)N(CC)C2C1NN=c1s/c(=C3\C(=O)N(CCC(C)C)c4ccccc43)c(=O)n12 (centres undefined)	1.88	9.81	2.32	11.4	1.02	> 100	1.75	4.33	1.83	4.5	–	–	1.01	4.18	1.31	3.75	–	–	1.34	3.86
C=C1C(=O)O[C@@H]2[C@H]1CC[C@H](C)[C@]1(O)CCC(=O)[C@@]21C	–	> 10	–	> 10	–	> 10	–	> 10	–	> 10	–	–	–	–	–	> 10	–	> 10	–	> 10
